This is an account of results in patent US6566337B1, “Compounds with growth hormone releasing properties” (Novo Nordisk A/S, priority 1998, dated 2003).

Square brackets hold non-standard residues; d marks the D form. Peptide text beside a SMILES is read from it. d2Nal = N[C@H](Cc1ccc2ccccc2c1)C(=O)O

One data set has as its system carboxypeptidase Y and B. Description: Metabolic stability in carboxypeptidase mix (ESMS, SIM signal). As to conditions: carboxypeptidase Y and B in 50 mM ammoniumacetate pH 4.5, 37° C., 24 h, decrease in SIM signal.
The subject of data set [1] is trypsin, chymotrypsin and elastase. The data set can be described thus: Metabolic stability in pancreatic enzyme mix (ESMS, SIM signal). To be noted: chymotrypsin and elastase in 100 mM ammoniumbicarbonate pH 8.0, 37° C., 24 h, decrease in SIM signal.
Experimental: (§1) Compounds is dissolved at a concentration of 1 mg/ml in water. 25 ml of this solution is added to 175 ml of the respective enzyme-solution (resulting in an enzyme:substrate ratio (w/w) of approximately 1:5). The solution is left at 37° C. overnight. 10 ml of the various degradation solutions is analyzed against a corresponding zero-sample using flow injection electrospray mass spectrometry (ESMS) with selected ion monitoring of the molecular ion. If the signal has decreased more than 20% compared to the zero-sample, the remainder of the solution is analyzed by HPLC and mass spectrometry in order to identify the extent and site(s) of degradation precisely.
Pancreatic enzyme mix: trypsin, chymotrypsin and elastase in 100 mM ammoniumbicarbonate pH 8.0 (all concentrations 0.025 mg/ml).
(§2) Mass spectrometric analysis was performed using two different mass spectrometers. A Sciex API III triple quadrupole LC-MS instrument (Sciex instruments, Thornhill, Ontario) equipped with an electrospray ion-source and a Bio-Ion 20 time-of-flight Plasma Desorption instrument (Bio-Ion Nordic AB, Uppsala, Sweden).
(§3) Quantification of the compounds (before and after degradation) was done on the API III instrument using single ion monitoring of the molecular ion in question with flow injection of the analyte. […]
A short description of data set [2]: Pharmacokinetics in fasted Beagle dogs. As to conditions: dog, plasma; for half-life: in 5% glucose solution, non-compartmental, read-out: Plasma half-life T½ (converted); for bioavailability: intravenous and oral administration in 5% glucose solution, read-out: Oral bioavailability Fpo. It is filed as in vivo. The procedure: The pharmakokinetic data were obtained by following procedure:
The pharmacokinetics of the test compounds were investigated in fasted Beagle dogs.
Intravenous and oral administration of the test compound, in 5% glucose solution, was separated by a one weeks washout.
Blood samples were collected immediately before drug administration (time zero) and than 0.08, 0.25, 0.50, 0.75, 1.0, 1.5, 2.0, 3.0, 4.0, 5.0, and 6.0 hours after administration.
The plasma samples were stored frozen (<−18° C.) pending analysis.
An HPLC method with solid phase extraction and UV detection was used for the quantification of the compound in plasma.
The pharmacokinetic parameters for compounds were calculated by non-compartmental methods using the PC based pharmacokinetic software WinNonlin, version 1.1 (Scientific Consulting Inc., Apex, N.C., USA).

Experimental for carboxypeptidase Y and B: as §1
Carboxypeptidase mix: carboxypeptidase Y and B in 50 mM ammoniumacetate pH 4.5 (all concentrations 0.025 mg/ml).
as §2, §3

Regarding `C[C@H](NC(=O)[C@@H](Cc1c[nH]c2ccccc12)NC(=O)[C@@H](N)Cc1c[nH]cn1)C(=O)N[C@@H](Cc1c[nH]c2ccccc12)C(=O)N[C@H](Cc1ccccc1)C(=O)N[C@@H](CCCCN)C(N)=O` [GHRP-6] (H-H[dW]AW[dF]K-NH2), in the data set with carboxypeptidase Y and B, the “Carboxy-peptidase mix (stability)” value is “− (Unstable (more than 20% decrease in SIM signal after 24 h in degradation solution))”. Further, the “Pan. enzyme mix (stability)” value in data set [1] is “− (Unstable (more than 20% decrease in SIM signal after 24 h in degradation solution))”.
Consider `C[C@H](NC(=O)[C@@H](Cc1ccc2ccccc2c1)NC(=O)[C@@H](C)N)C(=O)N[C@@H](Cc1c[nH]c2ccccc12)C(=O)N[C@H](Cc1ccccc1)C(=O)N[C@@H](CCCCN)C(N)=O` [GHRP-2] (H-[dA][d2Nal]AW[dF]K-NH2), for which the “Carboxy-peptidase mix (stability)” value in the data set on carboxypeptidase Y and B is “− (Unstable (more than 20% decrease in SIM signal after 24 h in degradation solution))”. The “Pan. enzyme mix (stability)” value in data set [1] is given as “− (Unstable (more than 20% decrease in SIM signal after 24 h in degradation solution))”.
One may read the half-life as the time in which the quantity being followed falls by half. `CN(C(=O)/C=C/CC(C)(C)N)[C@H](Cc1ccc2ccccc2c1)C(=O)N(C)[C@H](Cc1ccccc1)C(=O)NCCc1ccncc1` [Example 408 from WO 9723508]: in data set [2], the half-life was 3.89 h and the bioavailability was 26%.
With `CN(CCc1ccccn1)C(=O)[C@@H](Cc1ccccc1)N(C)C(=O)[C@@H](Cc1ccc2ccccc2c1)N(C)C(=O)/C=C/CC(C)(C)N` [Example 1, (2E)-5-Amino-5-methylhex-2-enoic acid N-methyl-N-[(1R)-1-(N-methyl-N-{(1R)-1-[N-methyl-N-(2-(2-pyridinyl)ethyl)carbamoyl]-2-phenylethyl}carbamoyl)-2-(2-naphthyl)ethyl]amide], in data set [2], the half-life was 2 h and the bioavailability came out at 34%.
